From patent US7521236B2, “Sulfur-oxidizing plant growth promoting rhizobacteria for enhanced canola performance” (priority 2002, dated 2009)

How the values were obtained:
Assay type in all cases: in vivo
[1] = test system: canola; assay: Field trial 2002, Dauphin, MB; settings: canola seed, Dauphin field site
Method: In 2002, field trials were carried out using three canola PGPR strains. The canola trials were planted through commercial seed planter using bacteria inoculated powdered peat-based carrier material coated seeds. The cultivar used was the same as 2001. All field trials were randomized complete block design having each plot size of 6 m×1.5 m, with nine bacterial treatments along with three controls, all with six replicates. […] Plots were harvested at maturity, seed was collected and cleaned, and yield was measured based on 8.5% seed moisture. In addition, canola seed macronutrients (S, N, P, K, Ca and Mg) and micronutrients (Zn, Mn, Cu and Fe) uptake were also determined.

[2] = test system: canola plants; assay: Second growth room experiment: seed yield and seed nutrient uptake; settings: seed, per plant
[3] = test system: canola plants; assay: as above; settings: per plant; for B uptake / Ca uptake / Cu uptake / K uptake / Mg uptake / N uptake / P uptake / S uptake / Zn uptake: seed
Method: (§1) Effects of bacterial inoculation on plant growth parameters were studied in a growth room with the four screened S-oxidizing strains (RAY12, RAY28, RAY132 and RAY209). More emphasis was given on plant growth characteristics including canola seed yield. Growth room assay was conducted with a sulfur deficient field soil, collected near Melfort, Saskatchewan, and was a loam (pH 7.8, electrical conductivity (mS/cm) 0.2 with following nutrient levels in ppm. nitrate nitrogen 7.3, phosphorous 14.6, potassium 187.1 and sulfur 9.5. Rhizobacterial strains RAY12, RAY28, RAY132 and RAY209 were used for the canola seed inoculation. The experiment was consisting of eight bacterial treatments along with three controls (control—no sulfur; elemental S control; and sulfate S control) each having three replications. One and half kg sieved soil (<5 mm mesh) was added to 16-cm plastic pots and the pots were kept in a growth room (22° C., 16 h light; 18° C., 8 h dark). Five seeds were planted in each of the pots and seedlings were thinned to one per pot after emergence. Daily watering to constant weight ensured similar matric potential between the pots. Canola plants were harvested at maturity (105 DAP) and stalk dry weight, pod number, pod weight and seed weight or yield determined. In another growth room experiment done in similar manner as previous one, canola seed yield, and, seed macronutrients (S, N, P, K, Ca and Mg) and micronutrients (Zn, B, Cu and Fe) uptake were determined.

[4] = test system: canola plants; assay: Growth room experiment in sulfur deficient Melfort, SK soil: biomass and yield; settings: 105 DAP
Method: as §1

[S] [ES, elemental sulfur]
Ca uptake [1]: 4.50 kg/ha | Cu uptake [1]: 2.17 g/ha | Fe uptake [1]: 57.17 g/ha | K uptake [1]: 7.60 kg/ha | Mg uptake [1]: 3.51 kg/ha | Mn uptake [1]: 28.97 g/ha | N uptake [1]: 32.91 kg/ha | P uptake [1]: 7.54 kg/ha | S uptake [1]: 4.13 kg/ha | Zn uptake [1]: 40.05 g/ha | Mn uptake [2]: 1.14 µg | seed yield [3]: 2.92 g | B uptake [3]: 0.09 µg | Ca uptake [3]: 12.10 mg | Cu uptake [3]: 0.03 µg | K uptake [3]: 28.42 mg | Mg uptake [3]: 11.37 mg | N uptake [3]: 116.30 mg | P uptake [3]: 28.71 mg | S uptake [3]: 18.66 mg | Zn uptake [3]: 2.08 µg | pod no. [4]: 58 NO./PLANT | pod wt. [4]: 3.17 G/PLANT | seed wt. [4]: 1.13 G/PLANT | stalk dry wt. [4]: 3.84 G/PLANT

sulfate sulfur [SO4]
Ca uptake [1]: 5.02 kg/ha | Cu uptake [1]: 2.61 g/ha | Fe uptake [1]: 68.20 g/ha | K uptake [1]: 9.09 kg/ha | Mg uptake [1]: 4.14 kg/ha | Mn uptake [1]: 37.22 g/ha | N uptake [1]: 39.74 kg/ha | P uptake [1]: 8.71 kg/ha | S uptake [1]: 5.10 kg/ha | Zn uptake [1]: 51.32 g/ha | Mn uptake [2]: 1.22 µg | seed yield [3]: 3.11 g | B uptake [3]: 0.13 µg | Ca uptake [3]: 11.71 mg | Cu uptake [3]: 0.03 µg | K uptake [3]: 27.52 mg | Mg uptake [3]: 12.12 mg | N uptake [3]: 116.30 mg | P uptake [3]: 28.24 mg | S uptake [3]: 15.76 mg | Zn uptake [3]: 1.72 µg | pod no. [4]: 78 NO./PLANT | pod wt. [4]: 4.20 G/PLANT | seed wt. [4]: 1.71 G/PLANT | stalk dry wt. [4]: 4.56 G/PLANT
